Data set [1] addresses T1, COX-1 (derived from bovine aortic endothelial cells) (Bos taurus, UniProt O62664).
T1 construct: COX-1 (derived from bovine aortic endothelial cells); host or cells: bovine aortic endothelial cells (endogenous)
T1 sequence (O62664 25-600): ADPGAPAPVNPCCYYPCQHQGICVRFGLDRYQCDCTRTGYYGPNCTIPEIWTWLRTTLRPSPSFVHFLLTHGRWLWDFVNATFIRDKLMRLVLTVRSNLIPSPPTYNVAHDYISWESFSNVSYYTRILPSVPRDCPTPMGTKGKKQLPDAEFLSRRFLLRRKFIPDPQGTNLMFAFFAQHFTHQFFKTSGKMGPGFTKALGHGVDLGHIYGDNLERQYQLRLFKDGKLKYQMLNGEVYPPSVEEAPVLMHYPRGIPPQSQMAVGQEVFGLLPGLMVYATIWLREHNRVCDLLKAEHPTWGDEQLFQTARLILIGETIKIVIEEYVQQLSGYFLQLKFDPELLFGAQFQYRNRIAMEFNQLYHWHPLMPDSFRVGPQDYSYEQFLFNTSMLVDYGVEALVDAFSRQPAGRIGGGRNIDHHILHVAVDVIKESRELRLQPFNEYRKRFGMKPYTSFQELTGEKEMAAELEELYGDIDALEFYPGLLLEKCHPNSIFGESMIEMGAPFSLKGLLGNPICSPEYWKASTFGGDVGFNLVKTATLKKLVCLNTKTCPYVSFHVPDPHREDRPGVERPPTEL
The following applies: cited from earlier work.

The next data set deals with T2, canine COX-1 (Canis lupus familiaris, UniProt Q8HZR1).
T2 construct: from tissue; host or cells: washed platelets from donor dog blood
T2 sequence (Q8HZR1 28-603): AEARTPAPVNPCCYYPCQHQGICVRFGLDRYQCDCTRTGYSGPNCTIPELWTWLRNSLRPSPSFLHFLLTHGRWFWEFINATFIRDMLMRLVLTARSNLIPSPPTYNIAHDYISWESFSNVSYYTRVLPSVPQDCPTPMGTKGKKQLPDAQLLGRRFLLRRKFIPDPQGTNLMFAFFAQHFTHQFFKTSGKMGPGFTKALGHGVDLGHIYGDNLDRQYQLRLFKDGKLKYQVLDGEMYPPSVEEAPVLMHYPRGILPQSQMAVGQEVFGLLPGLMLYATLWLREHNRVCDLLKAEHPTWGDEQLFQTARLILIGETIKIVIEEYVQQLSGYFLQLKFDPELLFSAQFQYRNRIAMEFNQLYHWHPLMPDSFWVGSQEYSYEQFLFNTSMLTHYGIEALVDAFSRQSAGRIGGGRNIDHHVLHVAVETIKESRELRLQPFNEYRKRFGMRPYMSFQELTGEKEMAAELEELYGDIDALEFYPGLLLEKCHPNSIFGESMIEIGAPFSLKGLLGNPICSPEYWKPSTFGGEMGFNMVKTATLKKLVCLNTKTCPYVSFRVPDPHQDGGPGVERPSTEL
Nature of the data set: Canine COX-1 activity: washed canine platelets, A23187-stimulated TXB2 by EIA. The format is cell-based, dog. The following applies: results of repeated tests averaged. Here is the method: Protocol for Evaluation of Canine COX-1 Activity
Test drug compounds were solubilized and diluted the day before the assay was to be conducted with 0.1 mL of DMSO/9.9 mL of Hank's balanced salts solution (HBSS), and stored overnight at 4° C. On the day that the assay was carried out, citrated blood was drawn from a donor dog, centrifuged at 190×g for 25 min at room temperature, and the resulting platelet-rich plasma was then transferred to a new tube for further procedures. The platelets were washed by centrifuging at 1500×g for 10 min at room temperature. The platelets were washed with platelet buffer comprising Hank's buffer (Ca free) with 0.2% bovine serum albumin (BSA) and 20 mM HEPES. […] Then, 100 μl of canine washed platelets were added and the samples were incubated at 37° C. for 15 min, after which the reaction was stopped by adding 20 μl of 77 mM EDTA. The plates were then centrifuged at 2000×g for 10 min at […], after which 50 μl of supernatant was assayed for thromboxane B2 (TXB2) by enzyme-immunoassay (EIA).

Data set [2] deals with COX-2 (Rattus norvegicus, UniProt P35355). Description: in vivo. The following applies: read-out: COX-2 ED50. The protocol:
In vivo cyclo-oxygenase selectivity was evaluated in rats by the method of Griffiths et al., described in Agents & Actions, 32, (1991), 313-320. […] Synovial fluid is secreted by the synovial membrane and is contained in joint cavities. During joint inflammation, COX-2 is induced in joint tissues and prostaglandin products accumulate in the synovial fluid. […] Inhibition of this stomach isozyme results in adverse gastrointestinal side effects.

The nature of data set [3]: Systemic clearance estimated from oral pharmacokinetics. The format is in vivo, dog. The following applies: estimated from pharmacokinetics after oral 2 mg/lb to dogs, F assumed 1, AUC extrapolated to infinity. The protocol:
where Css is the steady state plasma carprofen concentration, R0 is the input rate, and Cl is the systemic clearance.
where F is the bioavailability (assumed to be 1 for an implant), D is the oral dose, and AUC is the average area under the plasma carprofen concentration vs. time curve, extrapolated to infinity.
A total dose of 3.6 mg/lb or 8.4 mg/lb or 36 mg/lb would be required for 3, 7, or 30 day therapy, respectively. In summary, an implant containing 8.4 mg carprofen per lb body weight, releasing carprofen at a rate of 50 μg per lb of body weight per hr, maintains a plasma carprofen concentration of 10 μg/mL for 7 days. This will maintain 80% COX-2 inhibition for 7 days.

Data set [4] deals with COX-2 (Canis lupus familiaris, UniProt Q8SPQ9). Nature of the data set: in vivo. The following applies: for PGE2 Pg/mL/Well: 2 mg/kg PO 30 min before carrageenan, exudate fluid, group average; for inhibition at 2 mg/kg: dog, po. The protocol:
This objective of this study was to monitor in vivo COX-2 activity in a subcutaneously implanted chamber during an induced inflammation. The COX-2 enzyme can be detected by western analysis as early as 5 hours after carrageenan treatments (T. Kirchner et al., J. Pharmacol. Exp. Ther. (1997) 282, 1094-1101). […] Six beagle dogs had polyethylene “whiffle” golf balls approximately 4.2 cm in outer diameter surgically implanted under the skin just behind the shoulder blades.
The experiment was run in two replicates. […] The hair around the ball was shaved and the area was probed to locate a hole in the whiffle ball. This area was then marked and it was sterilized with 2% iodine tincture. […] EF samples were taken at 0, 5, and 24 hours after carrageenan injection.
The column was first washed with 10 mL of 0.1 M phosphate buffer then 10 mL water. The EF was then diluted 1:5 with 0.1 M phosphate buffer and added to the column. The column was washed with 10 mL of the phosphate buffer, then 10 mL of water. Finally, the PGE2 was removed from the column with 2.5 mL 95% ethanol.

Where two headings read alike, the source gives them in different places.

We go through one compound from patent publication US20030212123A1, “COX-2 selective carprofen for treating pain and inflammation in dogs” (Pfizer Inc., priority 1997, published 2003).

As usually defined, the ED50 is the midpoint of the dose-response relation.

COX-2 (Canis lupus familiaris, UniProt Q8SPQ9), sequence (Q8SPQ9 18-604): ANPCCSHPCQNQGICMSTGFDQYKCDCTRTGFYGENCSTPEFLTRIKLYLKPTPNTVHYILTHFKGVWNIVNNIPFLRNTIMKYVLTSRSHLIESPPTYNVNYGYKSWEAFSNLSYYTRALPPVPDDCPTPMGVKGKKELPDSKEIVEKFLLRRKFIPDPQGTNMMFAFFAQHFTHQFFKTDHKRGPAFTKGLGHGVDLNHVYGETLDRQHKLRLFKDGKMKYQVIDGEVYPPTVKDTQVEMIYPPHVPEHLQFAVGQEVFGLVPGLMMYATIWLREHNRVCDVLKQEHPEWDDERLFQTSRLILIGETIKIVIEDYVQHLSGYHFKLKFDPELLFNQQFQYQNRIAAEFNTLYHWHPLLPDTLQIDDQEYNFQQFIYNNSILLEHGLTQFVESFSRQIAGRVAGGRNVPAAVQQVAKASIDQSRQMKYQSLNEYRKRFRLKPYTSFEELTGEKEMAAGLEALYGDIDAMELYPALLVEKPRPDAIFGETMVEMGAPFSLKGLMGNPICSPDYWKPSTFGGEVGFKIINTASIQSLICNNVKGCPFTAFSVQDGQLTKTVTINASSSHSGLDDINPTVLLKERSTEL
COX-2 (Rattus norvegicus, UniProt P35355), sequence (P35355 18-604): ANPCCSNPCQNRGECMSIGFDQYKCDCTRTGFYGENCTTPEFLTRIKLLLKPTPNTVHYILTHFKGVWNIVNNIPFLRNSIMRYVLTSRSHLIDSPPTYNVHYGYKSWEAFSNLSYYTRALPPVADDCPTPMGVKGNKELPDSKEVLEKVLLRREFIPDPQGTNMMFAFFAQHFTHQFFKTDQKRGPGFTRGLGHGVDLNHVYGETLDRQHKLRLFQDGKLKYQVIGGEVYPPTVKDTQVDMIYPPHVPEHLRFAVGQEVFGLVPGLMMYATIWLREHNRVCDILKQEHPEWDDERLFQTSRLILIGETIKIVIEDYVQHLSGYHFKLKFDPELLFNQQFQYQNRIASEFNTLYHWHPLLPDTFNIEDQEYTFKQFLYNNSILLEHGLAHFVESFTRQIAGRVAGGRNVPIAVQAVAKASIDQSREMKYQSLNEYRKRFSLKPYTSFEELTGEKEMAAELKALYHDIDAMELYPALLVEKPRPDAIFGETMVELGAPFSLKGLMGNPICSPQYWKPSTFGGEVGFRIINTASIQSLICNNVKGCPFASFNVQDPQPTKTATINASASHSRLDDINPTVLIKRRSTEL

With `CC(C(=O)O)c1ccc2c(c1)[nH]c1ccc(Cl)cc12` (racemic) [Carprofen (rac.), 6-chloro-α-methyl-9H-carbazole-2-acetic acid], the IC50 is 11 µM in data set [1] (as shown by Battistini et al., read-out: IC50 (μM) COX-1); 11 µM in data set [1] (n=9, bovine aortic endothelial cells, read-out: IC50 (μg/mL) COX-1 (converted)); 13.2 µM at canine COX-1. The ED50 on COX-2 [2] was found to be 0.63 mg/kg. Moreover, the “systemic clearance Cl” value in data set [3] was 5 mL/hr per lb body weight. Further, the “PGE2 Pg/mL/Well” value on COX-2 [4] (0-hour) turned out to be 6.5 Pg/mL/Well; at COX-2 [4] (5-hour) it was 1.9 Pg/mL/Well; at COX-2 [4] (24-hour) it was 3.2 Pg/mL/Well. The inhibition at 2 mg/kg at COX-2 [4] (read-out: In vivo COX-2 activity Percent Inhibition, 2 mg/kg PO, 5-hour after carrageenan, group average) is 71%; at COX-2 [4] (read-out: In vivo COX-2 activity Percent Inhibition, 2 mg/kg PO, 24-hour after carrageenan, group average) it was 51%.
